Data on 5 compounds can be found in publication PMC11997985, “Synthesis and In Vitro Profiling of Psilocin Derivatives: Improved Stability and Synthetic Properties” (Journal of Medicinal Chemistry, 2025).

“Also recorded” adds a separate entry of the source. Marks after values point to notes of the source that are not given here.

Data set [1] in a line: Photolytic degradation of psilocin salts. To be noted: for % psilocin remaining: after 14 days.
A short description of data set [2]: General observations of psilocin salts in solid form in −18 °C freezer. To be noted: for stability (solid form): over 3 weeks in −18 °C freezer, visual inspection and LCMS; for hygroscopic: visual inspection.
A short description of data set [3]: Forced degradation of psilocin salts, acid (1.0 M HCl). The following applies: for half-life at 2 mg/mL freebase psilocin: 1.0 M HCl (acid forced degradation); for % psilocin remaining: after 24 h compared with first measuring point at 1 h, LCMS; for color: visual inspection after 24 h.
The nature of data set [4]: Forced degradation of psilocin salts, oxidative (0.30% H2O2).
Data set [5] is described as follows: Forced degradation of psilocin salts, base (0.10 M NaOH). The following applies: for half-life at 24 h, 2 mg/mL freebase psilocin: 0.10 M NaOH (base forced degradation).
The nature of data set [6]: Thermal degradation of psilocin salts at 60 °C. To be noted: for % psilocin remaining: after 6 days (143 h).
Where [7] appears, read: 0.30% H2O2 (oxidative forced degradation), half-life, 0.30% H2O2, RT.
[8] abbreviates: 0.30% H2O2 (oxidative forced degradation), half-life, 0.30% H2O2.

The half-life is how long it takes for the measured level to halve. Turning to `CN(C)CCc1c[nH]c2cccc(O)c12.Cl` [Compound 9a], the half-life at 336 h, 2 mg/mL freebase psilocin in data set [1] worked out at 333 h. Also, the “% psilocin remaining” value in data set [1] (12900 lx) is given as 51%; in data set [3] (1.0 M HCl), 100%; in data set [4] (0.30% H2O2, after 24 h), 100%; in data set [5] (0.10 M NaOH, after 24 h) it was 0%; in data set [6] it was 0%. Moreover, the “stability (solid form)” value in data set [2] is given as “degrading during storage after only 3 days; also recorded: not very stable”. Further, the hygroscopic result in data set [2] was “highly hygroscopic and yes”. Besides, the half-life at 2 mg/mL freebase psilocin in data set [3] was above 167 h; in data set [4] (setting [7]) it was above 167 h; in data set [6], below 48 h. Also, the color result in data set [3] (1.0 M HCl, RT) is given as “clear”. For the same compound, in data set [5], the half-life at 24 h, 2 mg/mL freebase psilocin turned out to be 8.33 h. For the same compound, the half-life at 144 h, 2 mg/mL freebase psilocin in data set [6] came out at 50 h.
`CN(C)CCc1c[nH]c2cccc(O)c12.OB(O)O` [Compound 9b]: the half-life was <1000 ^b min in data set [1] (12900 lx, RT); >10,000 min in data set [3] (1.0 M HCl, RT); below 1 h in data set [4] (0.30% H2O2, RT); 6.67 h in data set [5] (0.10 M NaOH, RT); below 11.7 h in data set [6]. For the same compound, the “time to complete breakdown” value in data set [1] (12900 lx, RT) was at most 1 week. Moreover, the “color (24 h)” value in data set [1] (12900 lx, RT, water:acetonitrile 1:1) is “black”; in data set [6] (water:acetonitrile 1:1), “black”. Also, the “% psilocin remaining” value in data set [1] (12900 lx) is given as 0%; in data set [3] (1.0 M HCl) it was 93%; in data set [4] (0.30% H2O2, after 24 h), 0%; in data set [5] (0.10 M NaOH, after 24 h), 0%; in data set [6] it was 0%. Further, the “control sample stored in darkness” value in data set [1] (in air at RT for a week, dissolved salt) is reported as “entirely degraded”. In addition, the “stability (solid form)” value in data set [2] was “stable enough to store as a solid in the freezer for an extended period; also recorded: no change”. In addition, in data set [2], the hygroscopic entry is given as “no”. In addition, the color entry was “clear” in data set [3] (1.0 M HCl, RT); “brown” in data set [4] (0.30% H2O2, after 24 h, RT); “black” in data set [5] (0.10 M NaOH, after 24 h, RT). Besides, the “time to complete degradation” value in data set [4] (0.30% H2O2) is on record as at most 3 h; in data set [6], at most 24 h.
For `CN(C)CCc1c[nH]c2cccc(O)c12.O=C(O)c1ccccc1` [Compound 9c], in data set [1], the half-life at 336 h, 2 mg/mL freebase psilocin was 150 h. The “time to complete breakdown” value in data set [1] (12900 lx, RT) is recorded as at most 1 week. Besides, the “% psilocin remaining” value in data set [1] (12900 lx) worked out at 0%; in data set [3] (1.0 M HCl), 100%; in data set [4] (0.30% H2O2, after 24 h) it was 94%; in data set [5] (0.10 M NaOH, after 24 h), 0%; in data set [6], 0%. In addition, in data set [2], the “stability (solid form)” value is given as “stable enough to store as a solid in the freezer for an extended period; also recorded: no change”. The hygroscopic result in data set [2] is given as “no”. Moreover, the half-life at 2 mg/mL freebase psilocin is above 167 h in data set [3], above 167 h in data set [4] (setting [7]) and below 48 h in data set [6]. Further, the color entry in data set [3] (1.0 M HCl, RT) is “clear”. Also, the half-life at 24 h, 2 mg/mL freebase psilocin in data set [5] worked out at 8.33 h. Besides, the half-life at 144 h, 2 mg/mL freebase psilocin in data set [6] came out at 33.3 h.
Regarding `CN(C)CCc1c[nH]c2cccc(O)c12.O=P(O)(O)O` [Compound 9e], the half-life at 336 h, 2 mg/mL freebase psilocin in data set [1] was 333 h. The “% psilocin remaining” value in data set [1] (12900 lx) is 33%; in data set [3] (1.0 M HCl), 94%; in data set [4] (0.30% H2O2, after 24 h), 83%; in data set [5] (0.10 M NaOH, after 24 h), 0%; in data set [6], 0%. For the same compound, the “stability (solid form)” value in data set [2] was “darkens after 1 week”. For the same compound, in data set [2], the hygroscopic result was “no”. For the same compound, the half-life at 2 mg/mL freebase psilocin in data set [3] is above 167 h; in data set [4] (setting [8]), above 24 h. Also, in data set [3] (1.0 M HCl, RT), the color result is reported as “clear”. The half-life at 24 h, 2 mg/mL freebase psilocin in data set [4] (setting [7]) is 13.3 h; in data set [5], 5 h. The half-life at 144 h, 2 mg/mL freebase psilocin in data set [6] came to 66.7 h.
On to `CN(C)CCc1c[nH]c2cccc(O)c12.O=C(O)C(F)(F)F` [Compound 9f], for which, in data set [1], the half-life at 336 h, 2 mg/mL freebase psilocin was 167 h. For the same compound, the “% psilocin remaining” value in data set [1] (12900 lx) was 22%; in data set [3] (1.0 M HCl), 99%; in data set [4] (0.30% H2O2, after 24 h), 78%; in data set [5] (0.10 M NaOH, after 24 h), 0%; in data set [6], 0%. Also, the “stability (solid form)” value in data set [2] is “degrades within 3 days”. For the same compound, the hygroscopic result in data set [2] is “highly hygroscopic and yes”. In addition, the half-life at 2 mg/mL freebase psilocin in data set [3] is above 167 h; in data set [4] (setting [8]) it was above 24 h; in data set [4] (setting [7]) it was 33.3 h; in data set [6], below 48 h. Further, in data set [3] (1.0 M HCl, RT), the color entry is given as “clear”. Moreover, in data set [5], the half-life at 24 h, 2 mg/mL freebase psilocin was determined as 15 h.
